Measured values taken from publication PMC5913400, “Yoda1 analogue (Dooku1) which antagonizes Yoda1‐evoked activation of Piezo1 and aortic relaxation” (British Journal of Pharmacology, 2018).
Where two headings read alike, the source gives them in different places. Blank lines part the entries; values can stand above or below the compound they belong to.

Key:
Assay type in all cases: cell-based
Piezo1 [1] = target: T1, Piezo1 (Homo sapiens, UniProt Q92508); assay: Ca2+ entry at […] in Piezo1 T-REx HEK […] cells ([…] of Yoda1 response); also reduces Yoda1 response; conditions: TREx-HEK; read-out: % of 10 μM Yoda1 response
Piezo1 [2] = target: T1, Piezo1; assay: as above; conditions: TREx-HEK; read-out: % of 10 μM Yoda1 response; remark: listed apart in the source
Piezo1 [3] = target: T1, Piezo1; assay: intracellular Ca2+ (fura-2) in Piezo1 T-REx HEK […] cells; no response in cells without Piezo1; EC50 […] in HUVECs
Piezo1 [4] = target: T1, Piezo1; assay: partial agonist; […] pretreatment reduces […] Yoda1-evoked Ca2+ entry in Piezo1 T-REx HEK […] cells; conditions: TREx-HEK; read-out: % inhibition of Yoda1 response at 10 μM
Piezo1 [5] = target: T1, Piezo1; assay: inhibition of […] Yoda1-evoked Ca2+ entry in Piezo1 T-REx HEK […] cells; reversible; also Tl+ flux and HUVECs (IC50 […])

T1 sequence (Q92508 whole entry): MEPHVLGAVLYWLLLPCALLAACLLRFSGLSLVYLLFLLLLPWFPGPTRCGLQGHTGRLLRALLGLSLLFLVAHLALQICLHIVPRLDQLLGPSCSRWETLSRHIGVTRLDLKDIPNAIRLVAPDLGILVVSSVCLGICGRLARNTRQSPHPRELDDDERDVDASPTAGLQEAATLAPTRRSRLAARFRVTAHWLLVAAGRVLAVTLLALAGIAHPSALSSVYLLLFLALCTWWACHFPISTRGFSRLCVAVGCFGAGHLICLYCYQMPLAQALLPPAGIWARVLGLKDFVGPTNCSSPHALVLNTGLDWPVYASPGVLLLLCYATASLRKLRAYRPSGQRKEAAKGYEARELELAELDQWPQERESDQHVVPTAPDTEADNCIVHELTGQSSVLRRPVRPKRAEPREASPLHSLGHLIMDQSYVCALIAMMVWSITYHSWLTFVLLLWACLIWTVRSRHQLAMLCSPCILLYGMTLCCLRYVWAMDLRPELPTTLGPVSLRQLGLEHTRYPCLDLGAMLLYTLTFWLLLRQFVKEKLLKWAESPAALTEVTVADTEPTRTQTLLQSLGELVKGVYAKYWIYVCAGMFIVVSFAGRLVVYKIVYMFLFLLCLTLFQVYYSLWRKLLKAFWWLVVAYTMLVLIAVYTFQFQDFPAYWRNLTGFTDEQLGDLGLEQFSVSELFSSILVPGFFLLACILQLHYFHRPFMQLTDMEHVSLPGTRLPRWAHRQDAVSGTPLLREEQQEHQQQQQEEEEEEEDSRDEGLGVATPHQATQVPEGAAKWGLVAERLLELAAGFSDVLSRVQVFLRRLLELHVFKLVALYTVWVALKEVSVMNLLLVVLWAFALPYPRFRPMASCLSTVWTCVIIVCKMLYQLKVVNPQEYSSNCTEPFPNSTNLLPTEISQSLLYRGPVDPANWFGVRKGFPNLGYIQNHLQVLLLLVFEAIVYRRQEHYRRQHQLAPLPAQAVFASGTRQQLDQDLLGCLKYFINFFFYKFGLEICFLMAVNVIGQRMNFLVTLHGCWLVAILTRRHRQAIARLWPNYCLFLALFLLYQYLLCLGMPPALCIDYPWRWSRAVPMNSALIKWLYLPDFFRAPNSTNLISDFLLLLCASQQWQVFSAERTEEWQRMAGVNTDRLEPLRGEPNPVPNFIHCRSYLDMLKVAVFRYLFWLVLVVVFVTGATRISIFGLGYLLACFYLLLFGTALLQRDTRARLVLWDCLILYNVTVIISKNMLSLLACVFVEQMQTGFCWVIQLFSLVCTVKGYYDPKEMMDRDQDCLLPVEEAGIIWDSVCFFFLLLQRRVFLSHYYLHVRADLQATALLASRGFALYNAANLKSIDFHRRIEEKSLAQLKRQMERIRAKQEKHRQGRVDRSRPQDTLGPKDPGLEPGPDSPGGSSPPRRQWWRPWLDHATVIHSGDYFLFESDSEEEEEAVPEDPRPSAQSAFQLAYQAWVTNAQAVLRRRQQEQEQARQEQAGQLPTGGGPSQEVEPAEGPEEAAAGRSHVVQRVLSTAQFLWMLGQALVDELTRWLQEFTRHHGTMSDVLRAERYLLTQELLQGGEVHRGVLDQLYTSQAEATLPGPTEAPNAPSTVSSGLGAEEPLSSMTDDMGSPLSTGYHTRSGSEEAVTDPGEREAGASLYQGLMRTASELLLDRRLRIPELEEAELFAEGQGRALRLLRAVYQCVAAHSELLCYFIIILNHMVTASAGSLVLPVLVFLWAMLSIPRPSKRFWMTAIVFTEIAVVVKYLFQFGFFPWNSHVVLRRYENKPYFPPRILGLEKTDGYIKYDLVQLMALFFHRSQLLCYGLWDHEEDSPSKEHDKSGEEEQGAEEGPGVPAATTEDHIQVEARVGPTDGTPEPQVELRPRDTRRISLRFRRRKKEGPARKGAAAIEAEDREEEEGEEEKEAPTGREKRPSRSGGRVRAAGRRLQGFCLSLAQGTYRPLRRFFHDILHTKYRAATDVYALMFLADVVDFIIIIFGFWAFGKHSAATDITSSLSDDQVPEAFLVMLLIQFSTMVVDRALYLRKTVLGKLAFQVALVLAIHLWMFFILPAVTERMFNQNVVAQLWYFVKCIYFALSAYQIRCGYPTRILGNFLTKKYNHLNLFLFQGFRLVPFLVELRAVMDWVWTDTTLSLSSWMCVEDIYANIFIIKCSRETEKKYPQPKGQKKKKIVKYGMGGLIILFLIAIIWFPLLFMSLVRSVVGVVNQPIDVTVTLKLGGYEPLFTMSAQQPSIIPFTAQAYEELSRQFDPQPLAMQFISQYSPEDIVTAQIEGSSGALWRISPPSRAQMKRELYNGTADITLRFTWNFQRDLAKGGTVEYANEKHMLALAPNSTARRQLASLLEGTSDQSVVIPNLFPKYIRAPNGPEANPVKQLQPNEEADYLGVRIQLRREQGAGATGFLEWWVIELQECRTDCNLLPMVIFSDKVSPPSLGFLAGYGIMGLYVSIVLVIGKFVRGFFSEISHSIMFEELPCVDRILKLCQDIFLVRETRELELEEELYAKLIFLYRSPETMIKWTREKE

Compound: Clc1cccc(Cl)c1CSc1nnc(-c2cnccn2)o1 [compound 11]
Emax (Piezo1 [1]): ~70%

Compound: Clc1cccc(Cl)c1CSc1nnc(-c2cccnc2)s1 [7a]
Emax (Piezo1 [2]): 50%

EC50 (Piezo1 [3]): 2510 nM
Compound: Clc1cccc(Cl)c1CSc1nnc(-c2cnccn2)s1 [Yoda1]

Compound: Clc1cccc(Cl)c1CSc1nnc(-c2ccccn2)o1 [2j]
inhibition at 10 µM (Piezo1 [4]): ~75%

IC50 (Piezo1 [5]): 1300 nM
Compound: Clc1cccc(Cl)c1CSc1nnc(-c2ccc[nH]2)o1 [2k, Dooku1]
